# In the supplement of paper PMC13380429:
# How the values were obtained:
# Conditions in all cases: 72 h
# [1] = test system: U2OS; experiment: drug sensitivity score (DSS) for viability; higher = more toxic; extreme values may be limits of the assay
# [2] = test system: HepG2; experiment: as above
# [3] = test system: Caco-2; experiment: as above
# [4] = test system: Vero E6; experiment: as above
# [5] = test system: Calu-3; experiment: as above
# [6] = test system: U2OS; experiment: cell viability relative to DMSO; higher = less toxic
# [7] = test system: HepG2; experiment: as above
# [8] = test system: Caco-2; experiment: as above
# [9] = test system: Vero E6; experiment: as above
# [10] = test system: Calu-3; experiment: as above
# [11] = test system: U2OS; experiment: relative viability EC50 (midpoint between 100% and the lowest measured viability); higher = less toxic
# [12] = test system: HepG2; experiment: as above
# [13] = test system: Caco-2; experiment: as above
# [14] = test system: Vero E6; experiment: as above
# [15] = test system: Calu-3; experiment: as above
compound,measurement,setting,value
Cc1cc(OCCN2CCOCC2)nn1-c1ccc2ccccc2c1 [API-001],drug sensitivity score,[1],0
same,drug sensitivity score,[2],0
same,drug sensitivity score,[3],0
same,drug sensitivity score,[4],0
same,drug sensitivity score,[5],0
same,cell viability,[6]; 1 nM,98.2%
same,cell viability,[6]; 10 nM,98.5%
same,cell viability,[6]; 100 nM,102%
same,cell viability,[6]; 1000 nM,101%
same,cell viability,[6]; 10000 nM,102%
same,cell viability,[7]; 1 nM,102%
same,cell viability,[7]; 10 nM,111%
same,cell viability,[7]; 100 nM,89.9%
same,cell viability,[7]; 1000 nM,102%
same,cell viability,[7]; 10000 nM,103%
same,cell viability,[8]; 1 nM,93.2%
same,cell viability,[8]; 10 nM,91.8%
same,cell viability,[8]; 100 nM,96.4%
same,cell viability,[8]; 1000 nM,94.1%
same,cell viability,[8]; 10000 nM,92%
same,cell viability,[9]; 1 nM,96.3%
same,cell viability,[9]; 10 nM,96%
same,cell viability,[9]; 100 nM,91.9%
same,cell viability,[9]; 1000 nM,94.8%
same,cell viability,[9]; 10000 nM,103%
same,cell viability,[10]; 1 nM,98.5%
same,cell viability,[10]; 10 nM,83.4%
same,cell viability,[10]; 100 nM,107%
same,cell viability,[10]; 1000 nM,115%
same,cell viability,[10]; 10000 nM,96.7%
same,relative viability EC50,[11],> 10 µM
same,relative viability EC50,[12],> 10 µM
same,relative viability EC50,[13],> 10 µM
same,relative viability EC50,[14],> 10 µM
same,relative viability EC50,[15],> 10 µM
COc1ccccc1N1CCN(CCN2C(=O)c3ccccc3C(C)(C)C2=O)CC1 [ARC-239],drug sensitivity score,[1],0
same,drug sensitivity score,[2],0
same,drug sensitivity score,[3],0
same,drug sensitivity score,[4],0
same,drug sensitivity score,[5],0
same,cell viability,[6]; 1 nM,96.8%
same,cell viability,[6]; 10 nM,95.3%
same,cell viability,[6]; 100 nM,97.9%
same,cell viability,[6]; 1000 nM,101%
same,cell viability,[6]; 10000 nM,95.9%
same,cell viability,[7]; 1 nM,107%
same,cell viability,[7]; 10 nM,95%
same,cell viability,[7]; 100 nM,106%
same,cell viability,[7]; 1000 nM,102%
same,cell viability,[7]; 10000 nM,97.3%
same,cell viability,[8]; 1 nM,102%
same,cell viability,[8]; 10 nM,101%
same,cell viability,[8]; 100 nM,91.3%
same,cell viability,[8]; 1000 nM,98.2%
same,cell viability,[8]; 10000 nM,92.6%
same,cell viability,[9]; 1 nM,104%
same,cell viability,[9]; 10 nM,95.2%
same,cell viability,[9]; 100 nM,102%
same,cell viability,[9]; 1000 nM,102%
same,cell viability,[9]; 10000 nM,103%
same,cell viability,[10]; 1 nM,105%
same,cell viability,[10]; 10 nM,104%
same,cell viability,[10]; 100 nM,100%
same,cell viability,[10]; 1000 nM,102%
same,cell viability,[10]; 10000 nM,95%
same,relative viability EC50,[11],> 10 µM
same,relative viability EC50,[12],> 10 µM
same,relative viability EC50,[13],> 10 µM
same,relative viability EC50,[14],> 10 µM
same,relative viability EC50,[15],> 10 µM
O=C(N[C@H]1CCN(C(=O)c2cc(C(F)(F)F)cc(C(F)(F)F)c2)[C@H](Cc2ccc(Cl)cc2)C1)c1ccnc2ccccc12 [AV-608],drug sensitivity score,[1],0
same,drug sensitivity score,[2],0
same,drug sensitivity score,[3],1.3
same,drug sensitivity score,[4],0
same,drug sensitivity score,[5],0
same,cell viability,[6]; 1 nM,101%
same,cell viability,[6]; 10 nM,98.8%
same,cell viability,[6]; 100 nM,93.5%
same,cell viability,[6]; 1000 nM,100%
same,cell viability,[6]; 10000 nM,95.5%
same,cell viability,[7]; 1 nM,96.2%
same,cell viability,[7]; 10 nM,103%
same,cell viability,[7]; 100 nM,98.9%
same,cell viability,[7]; 1000 nM,98.3%
same,cell viability,[7]; 10000 nM,97.3%
same,cell viability,[8]; 1 nM,89.3%
same,cell viability,[8]; 10 nM,95%
same,cell viability,[8]; 100 nM,96.1%
same,cell viability,[8]; 1000 nM,97.4%
same,cell viability,[8]; 10000 nM,75.5%
same,cell viability,[9]; 1 nM,96%
same,cell viability,[9]; 10 nM,100%
same,cell viability,[9]; 100 nM,101%
same,cell viability,[9]; 1000 nM,97.5%
same,cell viability,[9]; 10000 nM,95.7%
same,cell viability,[10]; 1 nM,115%
same,cell viability,[10]; 10 nM,98.6%
same,cell viability,[10]; 100 nM,101%
same,cell viability,[10]; 1000 nM,94.2%
same,cell viability,[10]; 10000 nM,99.4%
same,relative viability EC50,[11],> 10 µM
same,relative viability EC50,[12],> 10 µM
same,relative viability EC50,[13],> 10 µM
same,relative viability EC50,[14],> 10 µM
same,relative viability EC50,[15],> 10 µM
C[C@@H]1COCCN1c1cc(C2(S(C)(=O)=O)CC2)nc(-c2cccc3[nH]ccc23)n1 [AZ20],drug sensitivity score,[1],5.9
same,drug sensitivity score,[2],7.8
same,drug sensitivity score,[3],6.8
same,drug sensitivity score,[4],5.6
same,drug sensitivity score,[5],6
same,cell viability,[6]; 1 nM,97.4%
same,cell viability,[6]; 10 nM,101%
same,cell viability,[6]; 100 nM,95.9%
same,cell viability,[6]; 1000 nM,94.3%
same,cell viability,[6]; 10000 nM,9.3%
same,cell viability,[7]; 1 nM,110%
same,cell viability,[7]; 10 nM,110%
same,cell viability,[7]; 100 nM,95.9%
same,cell viability,[7]; 1000 nM,65.6%
same,cell viability,[7]; 10000 nM,31.8%
same,cell viability,[8]; 1 nM,88.1%
same,cell viability,[8]; 10 nM,96.3%
same,cell viability,[8]; 100 nM,89.5%
same,cell viability,[8]; 1000 nM,84.1%
same,cell viability,[8]; 10000 nM,23.1%
same,cell viability,[9]; 1 nM,102%
same,cell viability,[9]; 10 nM,98.2%
same,cell viability,[9]; 100 nM,98.5%
same,cell viability,[9]; 1000 nM,85.4%
same,cell viability,[9]; 10000 nM,40%
same,cell viability,[10]; 1 nM,89.4%
same,cell viability,[10]; 10 nM,97%
same,cell viability,[10]; 100 nM,91.8%
same,cell viability,[10]; 1000 nM,82.3%
same,cell viability,[10]; 10000 nM,34.6%
same,relative viability EC50,[11],2.66 µM
same,relative viability EC50,[12],0.973 µM
same,relative viability EC50,[13],1.71 µM
same,relative viability EC50,[14],1.57 µM
same,relative viability EC50,[15],1.57 µM
